The values that follow come from US20250082752A1, “COMPOUNDS, TARGETS, AND METHODS FOR MODULATING LYTIC GRANULE CONVERGENCE IN CYTOTOXIC CELLS TO PROMOTE BYSTANDER KILLING IN CELLULAR THERAPIES” (THE TRUSTEES OF COLUMBIA UNIVERSITY IN THE CITY OF NEW YORK, priority 2022, published 2025).

Assay [1] has as its system YTS cells. Briefly: Golgi fragmentation and granule dispersion in LPA-stimulated YTS cells. As to conditions: 20 μM LPA for two hours, sodium salt. In kind it is cell-based. The protocol: One way to induce the Golgi outpost formation through elongation and fission, is using LPA, which is predicted to activate a pathway dependent on transforming protein RhoA and effectively induce the formation of Golgi Outpost. […] The cells were also tested for Cr-51 (FIG. 14C). […] This dispersion was thus increased in quantity and spread on the GCC2 KO cells.

For a further assay, the system named is NK cells. As to the kind of experiment: Lytic granule dispersion in pretreated NK cells seeded on surfaces coated with activating antibodies. As to conditions: NK cells pretreated at 5 μM for 30 min. In kind it is cell-based. An excerpt:
FIGS. 59B-59E are magnified image of marked areas in FIG. 59A focusing on cells with dispersed granule. Perforin staining is shown in green, and alpha-tubulin is staining is shown in red.
FIGS. 60B-60E are magnified image of marked areas in FIG. 60A focusing on cells with dispersed granule. The position of the granules is indicated by perforin staining.
FIGS. 61B-61E are magnified image of marked areas in FIG. 61A focusing on cells with dispersed granule. The position of the granules is indicated by perforin staining.
NK cells were pretreated with N-{1-[(4-chlorophenyl)methyl]piperidin-4-yl}prop-2-enamide (FIG. 56) at […] for 30 min. The treated NK cells were seeded onto surfaces coated with activating antibodies.
NK cells were pretreated with 1-(prop-2-enamido)-N-[(thiophen-2-yl)methyl]cyclohexane-1-carboxamide (FIG. 57) at 5 μM for 30 min. The treated NK cells were seeded onto surfaces coated with activating antibodies.
NK cells were pretreated 1-[3-(4-fluorophenyl) prop-2-enoyl]-4-hydroxypyrrolidine-2-carboxylic acid (FIG. 58) at 5 μM for 30 min. The treated NK cells were seeded onto surfaces coated with activating antibodies.

Assay [2] relates to YTS cells. Briefly: Lytic granule convergence/dispersion in dynein inhibitor-treated YTS cells on an activating glass surface (confocal microscopy). In kind it is cell-based. As to conditions: dynein inhibitor vs DMSO, activating glass surface 30 min. The protocol: (§1) YTS cells were treated with DMSO or one of three different dynein inhibitors (Ciliobrevin-D, Dynapyrazole-A, or Compound 3016) and then incubated on an activating glass surface for 30 min. Cells were fixed, stained for a-tubulin, F-actin, perforin, and DNA (DAPI), and imaged via spinning disc confocal microscopy. Examples of individual cells (top) showing all stains and a broader field (bottom) at lower magnification showing only perforin to give an impression of the degree of granule convergence in a field of cells (FIG. 10A). […] Points show mean+SD of 3 independent experiments measuring >20 cells each.
This work served as proof-of-concept that influencing positional degranulation can be used to harness the NK cell lytic machinery.
To identify the best candidates to control lytic granule positioning, a high throughput screen (HTS) for activation-induced lytic granule convergence was developed. This is a novel method that utilizes a simple shape-based approach (a grid based on the a-tubulin defined NK cell footprint and Euclidean distance from the MTOC) to generate an estimated mean granule distance (eMGD) from the MTOC (FIGS. 11A-11C). This approach allows us to quickly screen large numbers of molecular candidates. MGD will be measured in 3D in fixed NK cells activated on an anti-NKp30/anti-CD18 or anti-CD28/anti-CD18 coated glass surface over a range of activation times, conditions, and NK cell types. Cells will be stained to identify the MTOC (for example, pericentrin) and lytic granules (mature perforin). The measured MGD is an indicator of convergence.

Assay [3] has as its system NK cell. As to the kind of experiment: Durability/reversibility of deconvergence after the inhibitor is removed from media. In kind it is cell-based. As to conditions: NK cell activation on activating glass surface at different times after removal from media. The protocol: as §1
Reversibility time for convergence is determined by activating small molecule inhibitor pre-treated NK cells on anti-NKp30/anti-CD18-coated or anti-CD28/anti-CD18 glass surfaces in the absence of the compound of interest. In short-term live-cell experiments, cells are labeled with lysotracker and fluorescent protein-conjugated tubulin; for longer term experiments, the more durable lytic granule label, LAMP1-mApple, is used. The efficiency of non-directional degranulation will be measured with the previously disclosed LAMP1-pHluorin cell line, which marks the lytic granule pH change that accompanies degranulation. […]

For assay [4], the system named is NK cell. The settings on record: previous work, cited from earlier work.
Assay [5] concerns YTS cells. Briefly: Granule distance to MTOC in Dynapyrazole A-treated YTS cells on a CD28/CD18 activating surface. Format: cell-based. The settings on record: 5 μM for 30 minutes, washed. As for the experimental part: (§2) YTS cells are treated with 5 μM of Dynapyrazole A for 30 minutes, then washed twice with culture media. Then cells are stimulated either with 721.221 target cells, K562 target cells, or with an activating surface (coverslip coated with anti CD18 and/or anti CD28).

For a further assay, the system named is bystander K562 cells. Briefly: Bystander killing by Dynapyrazole A-pretreated YTS cells. In kind it is cell-based. As to conditions: YTS cells pretreated with 5 μM for 30 minutes.
From the text: The graph is representative of three independently performed biological repeats.
To assess tumor cell and bystander killing, TheCOS comprises NK cell lines, tumor cell targets, and NK-resistant tumor cell bystanders. LAMP1-mApple-pHluorin-expressing NK cell lines enable visualization of granules (mApple) and degranulation events (pHluorin transition). mTurquoise2 mark susceptible tumor cells, and Citrine mark bystander cells. SYTOX deep red is included in the hydrogel to identify the nuclei of dying cells. A cell positive for Turquoise and SYTOX fluorescence denote a dying tumor cell, whereas a cell positive for Citrine and SYTOX indicate a dying bystander cell. 1×10^5 target tumor cells and 1×10^5 NK cells (for an initial 1:1 tumor to effector ratio)+/−1×10^6 bystander cells are deposited into separate thermally responsive hydrogel layers and then encased in thermally stable hydrogel. This sandwich is then deposited the into our imaging chamber. Prewarmed media is added to collapse the hydrogel layers.
as §2

Assay [6] concerns YTS cells. Briefly: Mean granule distance (MGD) and automated estimated MGD (eMGD) from the MTOC in activated YTS cells. In kind it is cell-based. As to conditions: YTS cells activated on glass via CD18/CD28 for 30 minutes, p<0.01. From the text:
FIGS. 11A-11H depict exemplary results related to mean granule distance (MGD) and automated estimated mean granule distance (eMGD). FIG. 11A depicts an exemplary high-resolution confocal imaging of lytic granules (labeled by perforin) and tubulin, which allows for automated intensity threshold-based identification of granules as shown in FIG. 11B (outlines indicate for granules and the microtubule-organizing center (MTOC)). FIG. 11C depicts the equation for calculating […] using x and y coordinates of each granule relative to the MTOC. […] FIG. 11E is an exemplary image of a fixed NK cell from the screen (labeled with perforin and tubulin) to which the Euclidean method for assessing granule localization relative to a total cell, tubulin-defined footprint of FIG. 11F can be applied. eMGD is then calculated using a Matlab script and the formula shown in FIG. 11G. […]
To identify the best candidates to control lytic granule positioning, a high throughput screen (HTS) for activation-induced lytic granule convergence was developed. […] MGD will be measured in 3D in fixed NK cells activated on an anti-NKp30/anti-CD18 or anti-CD28/anti-CD18 coated glass surface over a range of activation times, conditions, and NK cell types. […] The measured MGD is an indicator of convergence. […]

Entries after “also recorded” stand apart in the source; their conditions may differ.

For the molecule “1-Oleoyl lysophosphatidic acid sodium salt [LPA]”, in the assay on YTS cells [1], the Golgi fragmentation result is on record as “increase in Golgi fragments; also recorded: Golgi fragmentation” and the “granule dispersion / convergence” value is reported as “blocks convergence; also recorded: granule dispersion”.

With `C=CC(=O)NC1(C(=O)NCc2cccs2)CCCCC1` [Compound 7779, 1-(prop-2-enamido)-N-[(thiophen-2-yl)methyl]cyclohexane-1-carboxamide], the lytic granule dispersion result in the assay with NK cells was “induce lytic granule dispersion; also recorded: lytic granule dispersion induced”.

Regarding `C=CC(=O)NC1CCN(Cc2ccc(Cl)cc2)CC1` [Compound 5814, N-{1-[(4-chlorophenyl)methyl]piperidin-4-yl}prop-2-enamide], in the assay on NK cells, the lytic granule dispersion entry was “induce lytic granule dispersion; also recorded: lytic granule dispersion induced”.

With `N#CC(C(=O)c1ccc(Cl)cc1Cl)=C1NC(=O)c2ccc(Cl)cc2N1` [Ciliobrevin D, 2-(7-chloro-4-oxo-3,4-dihydroquinazolin-2 (1H)-ylidene)-3-(2,4-dichlorophenyl)-3-oxopropanenitrile], the “lytic granule convergence / dispersion” value is on record as “lytic granule dispersion” in the assay on YTS cells [2] and “highly effective in preventing lytic granule convergence” with YTS cells [2] (listed as CIL-D). For the same molecule, the “durability of deconvergence after inhibitor removed from media” value was “Neither inhibitor, however, promotes sustained deconvergence” with NK cell [3] and “quickly reversible” in the assay on NK cell [3] (listed as CIL-D). Also, the “killing of bystander cells” value with NK cell [4] (UGATm and other single cell assays) is “promoted killing of bystander cells”. Further, the “inhibition of lytic granule convergence (previously used)” value in the assay on NK cell [4] is reported as “inhibit lytic granule convergence”.

Turning to `N#Cc1c(C2(c3ccc(Cl)cc3)CC2)nn2c1[nH]c(=O)c1cc(I)ccc12` [Dynapyrazole A, 2-[1-(4-Chlorophenyl)cyclopropyl]-4,5-dihydro-7-iodo-5-oxopyrazolo[1,5-a]quinazoline-3-carbonitrile], the “lytic granule dispersion (granule distance to MTOC)” value is “induces lytic granule dispersion” in the assay with YTS cells [5] and “high lytic granule dispersion” with YTS cells [5] (listed as Dynapyrazole-A). Moreover, the “lytic granule convergence / dispersion” value in the assay with YTS cells [2] (listed as Dynapyrazole-A) was “lytic granule dispersion”; in the assay on YTS cells [2] (listed as dynapyrazole-A), “highly effective in preventing lytic granule convergence”. The “killing of bystander K562 cells” value in the assay on bystander K562 cells is recorded as “kill bystander K562 cells”; with bystander K562 cells (listed as Dynapyrazole-A), “kill bystander K652 cells”. For the same molecule, the “estimated mean granule distance (eMGD), change vs DMSO” value in the assay on YTS cells [6] (GE InCell Analyzer) is “Increase”. The “mean granule distance (MGD), change vs DMSO” value in the assay on YTS cells [6] (confocal microscope) is recorded as “Increase”.

Consider `O=C(O)C1CC(O)CN1C(=O)C=Cc1ccc(F)cc1` (stereo not shown) [Compound 3977, 1-[3-(4-fluorophenyl)prop-2-enoyl]-4-hydroxypyrrolidine-2-carboxylic acid], for which the lytic granule dispersion entry in the assay with NK cells is “induce lytic granule dispersion; also recorded: lytic granule dispersion induced”.
